In PubChem BioAssay AID256 (DTP/NCI, 2004):
Where “and” joins values, the source holds several entries; their conditions need not be identical. Equal entries are not always repeated. Inconclusive results and toxic doses are left out. Rule for the calls: active = survival T/C of 150% or more; inactive = T/C below 125% in these data.

Tested on: CD2F1 mice, L1210 leukemia ip, survival T/C
Experiment: NCI In Vivo Anticancer Drug Screen. Data for tumor model L1210 Leukemia (intraperitoneal) in CD2F1 (CDF1) mice
Conditions: higher = longer survival
Procedure, shortened: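 Tumor-bearing mice (transplanted tumor) were split into treated and vehicle control groups, and the measured endpoint of each treated group was divided by that of its vehicle controls.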

[1] = endpoint: mean survival time, dose: 100.0 mg/kg/injection, schedule: Q04DX003 (ip), vehicle: saline with Tween-80
[2] = endpoint: mean survival time, dose: 400.0 mg/kg/injection, schedule: Q04DX003 (ip), vehicle: saline with Tween-80
[3] = endpoint: mean survival time, dose: 200.0 mg/kg/injection, schedule: Q04DX003 (ip), vehicle: saline with Tween-80
[4] = endpoint: mean survival time, dose: 100.0 mg/kg/injection, schedule: Q01DX009 (ip), vehicle: saline with Tween-80
[5] = endpoint: mean survival time, dose: 200.0 mg/kg/injection, schedule: Q01DX009 (ip), vehicle: saline with Tween-80
[6] = endpoint: mean survival time, dose: 400.0 mg/kg/injection, schedule: Q01DX009 (ip), vehicle: saline with Tween-80
[7] = endpoint: mean survival time, dose: 100.0 mg/kg/injection, schedule: Q04DX003 (ip), vehicle: saline
[8] = endpoint: mean survival time, dose: 200.0 mg/kg/injection, schedule: Q04DX003 (ip), vehicle: saline
[9] = endpoint: mean survival time, dose: 100.0 mg/kg/injection, schedule: Q04DX002 (ip), vehicle: saline with Tween-80
[10] = endpoint: mean survival time, dose: 200.0 mg/kg/injection, schedule: Q04DX002 (ip), vehicle: saline with Tween-80
[11] = endpoint: mean survival time, dose: 100.0 mg/kg/injection, schedule: Q01DX001 (ip), vehicle: saline with Tween-80

Measured: T/C

CC(=O)OCC1OC(n2ncc3c(Cl)ncnc32)C(OC(C)=O)C1OC(C)=O (stereo not drawn)
inactive: endpoint: mean survival time, dose: 12.5 mg/kg/injection, schedule: Q01DX005 (ip), vehicle: water 93 % of control | endpoint: mean survival time, dose: 25.0 mg/kg/injection, schedule: Q01DX005 (ip), vehicle: water 93 % of control | endpoint: mean survival time, dose: 50.0 mg/kg/injection, schedule: Q01DX005 (ip), vehicle: water 101 % of control | endpoint: mean survival time, dose: 100.0 mg/kg/injection, schedule: Q01DX005 (ip), vehicle: water 112 % of control | endpoint: mean survival time, dose: 200.0 mg/kg/injection, schedule: Q01DX005 (ip), vehicle: water 103 % of control

Clc1ccc(C#Cc2ccc(Cl)cc2)cc1
inactive: endpoint: mean survival time, dose: 75.0 mg/kg/injection, schedule: Q01DX001 (ip), vehicle: other 103 % of control | [1] 100 % of control | endpoint: mean survival time, dose: 150.0 mg/kg/injection, schedule: Q01DX001 (ip), vehicle: other 94 % of control | endpoint: mean survival time, dose: 300.0 mg/kg/injection, schedule: Q01DX001 (ip), vehicle: other 88 % of control | [2] 87 % of control

CCOC(=O)Nc1cc(NC(c2ccccc2)c2ccccc2)c([N+](=O)[O-])c(Cl)n1
inactive: endpoint: mean survival time, dose: 100.0 mg/kg/injection, schedule: Q01DX001 (ip), vehicle: carboxymethylcellulose (CMC) 95 % of control | endpoint: mean survival time, dose: 200.0 mg/kg/injection, schedule: Q01DX001 (ip), vehicle: carboxymethylcellulose (CMC) 93 % of control | endpoint: mean survival time, dose: 400.0 mg/kg/injection, schedule: Q01DX001 (ip), vehicle: carboxymethylcellulose (CMC) 91 % of control

COc1ccccc1N1C(=O)CSC1=S
inactive: [1] 96 % of control | [3] 93 % of control | [2] 106 % of control

CC(=O)c1cccc2cccc([N+](=O)[O-])c12
inactive: [4] 101 % of control | [1] 102 % of control | [5] 102 % of control | [3] 102 % of control | [6] 102 % of control | [2] 100 % of control

CCCCCCCCCCCCOCC[N+](C/C=C/c1ccccc1)(CCO)CCO
inactive: endpoint: mean survival time, dose: 6.25 mg/kg/injection, schedule: Q04DX003 (ip), vehicle: saline sonified 97 % of control | endpoint: mean survival time, dose: 12.5 mg/kg/injection, schedule: Q04DX003 (ip), vehicle: saline sonified 103 % of control | endpoint: mean survival time, dose: 25.0 mg/kg/injection, schedule: Q04DX003 (ip), vehicle: saline sonified 101 % of control

CCOC(=O)c1c(N)sc2c1CCN(Cc1ccccc1)C2
inactive: [1] 98 % of control | [3] 93 % of control | [2] 88 % of control

CN(C)CCCNC(CC#N)CCC#N (stereo not drawn)
inactive: [7] 96 % of control | [8] 95 % of control

C/C(=N\NC(=S)N1CC2CCC(CC2)C1)c1cccc(C)n1
inactive: endpoint: median survival time, dose: 3.12 mg/kg/injection, schedule: Q01DX005 (ip), vehicle: saline with Tween-80 103 % of control | endpoint: median survival time, dose: 6.25 mg/kg/injection, schedule: Q01DX005 (ip), vehicle: saline with Tween-80 108 % of control | endpoint: median survival time, dose: 12.5 mg/kg/injection, schedule: Q01DX005 (ip), vehicle: saline with Tween-80 119 % of control | endpoint: median survival time, dose: 25.0 mg/kg/injection, schedule: Q01DX005 (ip), vehicle: saline with Tween-80 102 % of control and 108 % of control

O=C1NNC(=O)C2C3CCC(C3)C12 (stereo not drawn)
inactive: endpoint: mean survival time, dose: 100.0 mg/kg/injection, schedule: Q04DX003 (ip), vehicle: saline sonified 95 % of control | endpoint: mean survival time, dose: 200.0 mg/kg/injection, schedule: Q04DX003 (ip), vehicle: saline sonified 89 % of control

NC(=O)/C(=N/O)c1ccccc1
inactive: [1] 104 % of control | [3] 106 % of control | [2] 102 % of control

Cc1ccc(S(=O)(=O)OC2CCCCCCCCCCC2=O)cc1 (stereo not drawn)
inactive: endpoint: mean survival time, dose: 50.0 mg/kg/injection, schedule: Q04DX003 (ip), vehicle: other 97 % of control | endpoint: mean survival time, dose: 100.0 mg/kg/injection, schedule: Q04DX003 (ip), vehicle: other 93 % of control and 95 % of control | endpoint: mean survival time, dose: 200.0 mg/kg/injection, schedule: Q04DX003 (ip), vehicle: other 93 % of control | endpoint: mean survival time, dose: 400.0 mg/kg/injection, schedule: Q04DX003 (ip), vehicle: other 95 % of control

C=CC[n+]1cc2c3ccccc3c(N)cc2c2ccccc21
inactive: endpoint: mean survival time, dose: 1.56 mg/kg/injection, schedule: Q04DX003 (ip), vehicle: water 106 % of control | endpoint: mean survival time, dose: 3.13 mg/kg/injection, schedule: Q04DX003 (ip), vehicle: water 108 % of control | endpoint: mean survival time, dose: 6.25 mg/kg/injection, schedule: Q04DX003 (ip), vehicle: water 98 % of control

O=C(O)CCc1c[nH]c2ccccc12
inactive: [1] 98 % of control | [3] 102 % of control | [2] 108 % of control

CC(C)(O)C#Cc1ccccc1
inactive: [4] 98 % of control | [5] 98 % of control | [6] 96 % of control

Cc1ccc(OC(=O)Nc2cccc3ccccc23)cc1C
inactive: [9] 95 % of control | [10] 91 % of control

CCN(CC)S(=O)(=O)c1ccc(-c2cc(Cl)c3cc(S(=O)(=O)F)ccc3n2)cc1
inactive: [4] 107 % of control | [5] 87 % of control | [6] 91 % of control

Nc1ncc[nH]1
inactive: endpoint: mean survival time, dose: 50.0 mg/kg/injection, schedule: Q01DX001 (ip), vehicle: saline 110 % of control | endpoint: mean survival time, dose: 100.0 mg/kg/injection, schedule: Q01DX001 (ip), vehicle: saline 108 % of control | endpoint: mean survival time, dose: 200.0 mg/kg/injection, schedule: Q01DX001 (ip), vehicle: saline 110 % of control | endpoint: mean survival time, dose: 400.0 mg/kg/injection, schedule: Q01DX001 (ip), vehicle: saline 108 % of control

COC1=CC(=O)C2(C)CC=CCC2C1 (stereo not drawn)
inactive: [4] 98 % of control | [1] 92 % of control | [5] 95 % of control | [3] 103 % of control | [6] 95 % of control | [2] 91 % of control

Cc1ccccc1C1CCC(=O)OC1=O (stereo not drawn)
inactive: [11] 97 % of control | [9] 100 % of control | endpoint: mean survival time, dose: 200.0 mg/kg/injection, schedule: Q01DX001 (ip), vehicle: saline with Tween-80 95 % of control | [10] 103 % of control | endpoint: mean survival time, dose: 400.0 mg/kg/injection, schedule: Q01DX001 (ip), vehicle: saline with Tween-80 94 % of control | endpoint: mean survival time, dose: 400.0 mg/kg/injection, schedule: Q04DX002 (ip), vehicle: saline with Tween-80 100 % of control

C[N+](C)(C)CCP(=O)([O-])O
inactive: [7] 98 % of control | [8] 101 % of control | endpoint: mean survival time, dose: 400.0 mg/kg/injection, schedule: Q04DX003 (ip), vehicle: saline 101 % of control

CCCP(=O)(CCC)CCC
inactive: endpoint: mean survival time, dose: 25.0 mg/kg/injection, schedule: Q01DX001 (ip), vehicle: saline with Tween-80 94 % of control | endpoint: mean survival time, dose: 50.0 mg/kg/injection, schedule: Q01DX001 (ip), vehicle: saline with Tween-80 96 % of control | [11] 94 % of control

Cc1cn(C2CC(OS(C)(=O)=O)C(COC(c3ccccc3)(c3ccccc3)c3ccccc3)O2)c(=O)[nH]c1=O (stereo not drawn)
inactive: endpoint: mean survival time, dose: 12.5 mg/kg/injection, schedule: Q01DX005 (ip), vehicle: other 95 % of control | endpoint: mean survival time, dose: 25.0 mg/kg/injection, schedule: Q01DX005 (ip), vehicle: other 90 % of control | endpoint: mean survival time, dose: 50.0 mg/kg/injection, schedule: Q01DX005 (ip), vehicle: other 91 % of control | endpoint: mean survival time, dose: 200.0 mg/kg/injection, schedule: Q01DX005 (ip), vehicle: other 91 % of control
